Laboratory results taken from US12280125B2 (Imam Abdulrahman Bin Faisal University, priority 2022, dated 2025).

Tests used:
[1] = tested on: diabetic animals; assay: Non fasting blood glucose levels during 28 days; type: in vivo, rats; details: standard insulin group
Description: Non fasting blood glucose levels were measured for all the groups during the 28 days.

[2] = tested on: pancreatic tissue; assay: Histopathological evaluation of pancreas (H&E); type: in vivo; details: diabetic rats, after treatment
Excerpt: After treatment, the organs (liver and pancreas) of the rats were collected for histopathological evaluation. […] To collect the tissue at the end of the treatment time, animals were sacrificed under anesthetic conditions. These tissues were washed with phosphate-buffered saline (PBS) and fixed in 10% formalin (Tissue processing station-Tissue Teck VIP 5). The collected samples were properly stored under normal room temperature and were cut/sliced using a semiautomated microtome (Accu-Cut SRM system) into a few small pieces of 3-5 mm from each sample tissue and were separately embedded in paraffin blocks. These sliced tissues were mounted on the glass slides and were properly fixed on the glass slide with a hot plate. After this xylene was used to remove the paraffin from the tissues and was rehydrated by using a series of graded ethanol dilutions, 100%, 90%, and 70%. The rehydrated tissue sections were stained with hematoxylin and eosin (H&E) and were examined using light microscopy to determine the architecture and proportions of islet and acinar cells in the pancreas and hepatocytes in the liver. […] In the control group, acinar and islet cells are seen in the pancreas in normal proportions. The acinar cells are arranged in lobules and are stained darkly with prominent nuclei. The islet cells are embedded within the acinar cells and surrounded by a fine capsule (FIG. 19A). […]

[3] = tested on: diabetic animals; assay: Long-term effect on fasting blood glucose over 28 days; type: in vivo, rats; details: standard insulin treated group
[4] = tested on: liver tissue; assay: Histopathological evaluation of liver (H&E); type: in vivo; details: diabetic rats, after treatment
Excerpt: After treatment, the organs (liver and pancreas) of the rats were collected for histopathological evaluation. […] To collect the tissue at the end of the treatment time, animals were sacrificed under anesthetic conditions. These tissues were washed with phosphate-buffered saline (PBS) and fixed in 10% formalin (Tissue processing station-Tissue Teck VIP 5). The collected samples were properly stored under normal room temperature and were cut/sliced using a semiautomated microtome (Accu-Cut SRM system) into a few small pieces of 3-5 mm from each sample tissue and were separately embedded in paraffin blocks. These sliced tissues were mounted on the glass slides and were properly fixed on the glass slide with a hot plate. After this xylene was used to remove the paraffin from the tissues and was rehydrated by using a series of graded ethanol dilutions, 100%, 90%, and 70%. The rehydrated tissue sections were stained with hematoxylin and eosin (H&E) and were examined using light microscopy to determine the architecture and proportions of islet and acinar cells in the pancreas and hepatocytes in the liver. […] These cords of hepatocytes are separated by narrow intervening sinusoids lined by endothelial cells and Kupffer cells. No inflammatory cells are seen (FIG. 20A).

[5] = Body weight during 28 days; parameters: species or system rats; details: rat, in vivo

standard insulin: standard insulin dose used as the comparison treatment group in diabetic rats
Non fasting blood glucose level at day 1 [1]: 487 mg/dL | Non fasting blood glucose level at day 28 [1]: 371 mg/dL | Pancreatic histology [2]: the pancreatic histology is similar to that of the diabetic control | Fasting blood glucose level, initial [3]: 433 mg/dL | Fasting blood glucose level, reduced ([3]; p=<0.001): 371 mg/dL | Liver histology [4]: the liver histology shows mostly a normal lobular architecture with normal cords of hepatocytes with intervening patent sinusoids with focal congestion with only occasional hepatocytes showing degenerative changes and no inflammation is seen | Body weight at day 28 compared to the weight at day 21 [5]: significant (p=<0.001) improvement | Improvement in body weight compared to diabetic control group [5]: significant (p=<0.0001)
